{"source": "patent US11173217B2", "about": "“Methods and compositions for near infrared fluorescent nanodots with aggregation-induced emission characteristics” (priority 2016, dated 2021)", "origin": "cited, not measured here", "conditions": "in DMSO; cited from earlier work", "data": [{"smiles": "CC1(C)C(/C=C/C=C/C=C/C=C2\\N(CCCCS(=O)(=O)[O-])c3ccc4ccccc4c3C2(C)C)=[N+](CCCCS(=O)(=O)[O-])c2ccc3ccccc3c21.[Na+]", "note": "[IR-125]", "values": [{"measurement": "quantum yield of reference", "value": 13, "unit": "%"}]}]}
